SMILES strings stand for the structures.

The subject of test [1] is PCSK9 secreted by HepG2 cells. Nature of the test: Effect on the concentration of PCSK9 secreted by HepG2 cells (ELISA). Type of test: cell-based. The settings on record: Homo sapiens, 48 hours, PCSK9 in culture medium by ELISA. Summed up: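 HepG2 cells treated with compound for 48 h at 37° C., 5% CO2. Secreted PCSK9 in medium quantified by sandwich ELISA (HRP detection, OD 450 nm) against a 0–10 ng/mL standard curve. Inhibition relative to control; IC50 fitted from concentration–inhibition data.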

Test [2] has as its system hyperlipidemia animal model of B6-hPCSK9 transgenic mice. As to the kind of experiment: In vivo pharmacodynamic study in hyperlipidemia model of B6-hPCSK9 transgenic mice (LDL-C, TC, plasma PCSK9). Particulars: PO administration, 10 mpk, Day 14, B6-hPCSK9 transgenic mice on high-fat feed, normalized to vehicle group. On the set-up: species or system B6-hPCSK9 transgenic C57 mice. The protocol: 1. Experimental objective: The compounds of the present disclosure were evaluated for in vivo pharmacodynamics in a hyperlipidemia animal model of B6-hPCSK9 transgenic mice.
2.1 Animals: B6-hPCSK9 transgenic C57 mice, 6-8 weeks old, male, purchased from Jiangsu GemPharmatech Co., Ltd.
2.2 Animal model: After delivery to a barrier system, the animals were given one week for acclimatization and began to feed on the high-fat feed. The body weight and feed weight were weighed once a week, and the body weight and food intake thereof were recorded.
2.3 Grouping and administration • a. The animals were grouped by a random grouping method. • c. According to the grouping results, administration with the test drug was started (mode of administration: oral administration; administration volume: 10 mL/kg; frequency of administration: once/day or single administration; administration cycle: 21 days; vehicle: 10% Solutol HS 15/90% Saline). Test drug: Compounds of the present disclosure, made in house. • d. After the test drug was administered, the body weight and feed weight were weighed twice a week and blood was taken once a week. • e. The data was processed with software such as Excel. […] PCSK9 in plasma was detected by ELISA.

As for `O=c1nc(O)ccn1-c1ccc(N[C@H]2CC[C@H](Nc3nc4cc(C(F)(F)F)ccn4n3)C2)nc1` [Example 78, 4-hydroxy-1-(6-(((1S,3S)-3-((7-(trifluoromethyl)-[1,2,4]triazolo[1,5-a]pyridin-2-yl)amino)cyclopentyl)amino)pyridin-3-yl)pyrimidin-2(1H)-one], inhibition in test [1] was half-maximal at 33.1 µM (IC50). Moreover, in test [2], the “LDL-C change vs vehicle (%), Day 14” value was −37.98%.

In test [1], `O=C1c2ncccc2CN1c1cnc(N[C@H]2CC[C@H](Nc3nc4cc(OC(F)F)ccn4n3)C2)c(F)c1` [Example 151] yielded a half-maximal inhibitory concentration (IC50) of 12.7 µM. Moreover, the “LDL-C change vs vehicle (%), Day 14” value in test [2] is −31.09%.

The molecule `O=c1nc(O)ccn1-c1cnc(N[C@H]2CC[C@H](Nc3nc4cc(C(F)(F)F)ccn4n3)C2)c(F)c1` [Example 183] yielded an IC50 in test [1] of 4.8 µM. In addition, the “LDL-C change vs vehicle (%), Day 14” value in test [2] was −48.90%.

A word on the IC50: it is the point on the concentration scale where inhibition reaches its midpoint.

The values above are taken from patent US12612403B2, “Nitrogen-containing heterocyclic derivative inhibitor, and preparation method therefor and use thereof” (SHANGHAI HANSOH BIOMEDICAL CO., LTD., priority 2024, dated 2026).
